We go through five compounds from patent US9624210B2, “Amino-pyrimidine-containing spleen tyrosine kinase (Syk) inhibitors” (Merck Sharp & Dohme Corp., priority 2012, dated 2017).

The target in data set [1] is recombinant human GST-Syk (Homo sapiens (Human), UniProt P43405). Description: Homogeneous Time-Resolved Fluorescence (HTRF) assay for the recombinant human Syk enzyme. Format: biochemical. As to conditions: 10-dose titration 10 μM to 0.508 nM; 25 μM ATP; values below lowest test concentration given as <0.508. On the procedure: Assay 1: Homogeneous Time-Resolved Fluorescence (HTRF) Assay for the Recombinant Human Syk Enzyme A recombinant GST-hSyk fusion protein was used to measure potency of compounds to inhibit human Syk activity. The recombinant human GST-Syk (Carna Biosciences #08-176) (5 pM final concentration total protein) was incubated with various concentrations of the inhibitor diluted in DMSO (0.1% final concentration) for 10 minutes at room temperature in 15 mM Tris-HCl (pH 7.5), 0.01% Tween 20, 2 mM DTT in 384 well plate format. To initiate the reaction the biotinylated substrate peptide (250 nM final concentration) that contains the phosphorylation site for Syk was added with magnesium (5 mM final concentration) and ATP (25 μM final concentration). The final volume of the reaction was 10 μL. Phosphorylation of the peptide was allowed to proceed for 45′ at room temperature. To quench the reaction and detect the phosphorylated product, 2 nM of a Europium-anti-phosphotyrosine antibody (Perkin Elmer #AD0161) and 70 nM SA-APC (Perkin-Elmer #CR130-100) were added together in 15 mM Tris pH 7.5, 40 mM EDTA, 0.01% Tween 20. The final volume of the quenching solution was 10 μL. The resulting HTRF signal was measured after 30 minutes on a EnVision (Perkin-Elmer) reader using a time-resolved fluorescence protocol. […] Table A provides the IC50 values for representative compounds of the invention.
A general note: In TR-FRET formats the signal depends on donor and acceptor labels being close together.

For data set [2], the target named is phosphorylated Syk enzyme (Homo sapiens (Human), UniProt P43405). Description: Dissociation rate: enzyme-inhibitor dilution and activity recovery assay (TR-FRET). The data set is classed as biochemical. As to conditions: for recovery of Syk enzyme activity following dilution of the inhibitor:Syk complex (relative to the DMSO control): 100-fold dilution after 2 hours preincubation, FIG. 1 and FIG. 2. On the procedure: Assay 2: Determination of the Dissociation Rate for Compound 1B
The dissociation rate (koff) of inhibitor:phosphorylated Syk complexes was examined using an enzyme-inhibitor dilution and activity recovery assay (R. A. Copeland, Enzymes: A practical introduction to structure, Mechanism, and Data Analysis Wiley-VCH 2000 and R. A. Copeland, Evaluation of Enzyme Inhibitors in Drug Discovery John Wiley & Sons, 2005). In this assay the recovery of kinase activity following dilution is measured using a time resolved fluorescence resonance energy transfer (TR-FRET) assay. The enzyme (at 100× the usual assay concentration) and inhibitor (at 20× the usual assay concentration) are preincubated for 2 hours to ensure equilibrium is reached. The samples are then diluted 100-fold into assay buffer (1× Kinase buffer [Invitrogen, Inc], 2 mM DTT, 0.05% BSA) containing a saturating amount of competitive substrate (1 mM ATP, to minimize rebinding of inhibitor) and peptide substrate (1 μM). The final nominal enzyme concentration following dilution is 4 pM. Samples (1 μL) are periodically withdrawn from the assay plate and transferred into 50 uL of detection/quench buffer (10 nM streptavidin labeled Dylite (Perkin Elmer) and 3 nM Eu-labeled antiphosphotyrosine antibody (pY20, Perkin Elmer). After 30 minutes incubation, the assay plate was read on the Envision reader (Perkin Elmer) using the following parameters: excitation wavelength of 320 nm, and dual emission monitoring at 616 and 665 nm. The delay time was 20 μs with a 200 μs window time. The time between flashes was 16600 μs and 20 flashes were used per well.
The recovery of enzyme activity is fit to the following equation (Morrison, J. F., and Walsh, C. T., (1988) Advances in Enzymology and Related Areas of Molecular Biology, 61 201-301): P=vst+[(vi−vs)/kobs][1−exp(−kobst)]+P0 where P is the quantity of phosphorylated peptide product produced, P0 is the concentration of phosphopeptide product present at time=0 (immediately following dilution), vs is the steady-state velocity, vi is the rate at time=0, and kobs is the rate constant describing activity recovery.

In data set [3] the test system is allergic rhinitis. As to conditions: phase II clinical trial; cited from earlier work.
Data set [4] has as its system allergic rhinitis. Conditions: dosed intranasally, phase I/II study; cited from earlier work.

As to `Cc1cc(Nc2nccc(C(F)(F)F)n2)cc(-c2cnc(C3(O)CCCc4cc(C(=O)O)ccc43)s2)c1` (racemic) [Compound 1, 5-hydroxy-5-(5-(3-methyl-5-((4-(trifluoromethyl)pyrimidin-2-yl)amino)phenyl)thiazol-2-yl)-5,6,7,8-tetrahydronaphthalene-2-carboxylic acid], the IC50 (commonly the concentration that inhibits the measured activity by half) in data set [1] is under 0.508 nM.

Consider `Cc1cc(Nc2nccc(C(F)(F)F)n2)cc(-c2cnc([C@]3(O)CCCc4cc(C(=O)O)ccc43)s2)c1` [Compound 1A, (S)-5-hydroxy-5-(5-(3-methyl-5-((4-(trifluoromethyl)pyrimidin-2-yl)amino)phenyl)thiazol-2-yl)-5,6,7,8-tetrahydronaphthalene-2-carboxylic acid], for which the IC50 in data set [1] was found to be 1.6 nM.

In the case of `Cc1cc(Nc2nccc(C(F)(F)F)n2)cc(-c2cnc([C@@]3(O)CCCc4cc(C(=O)O)ccc43)s2)c1` [Compound 1B, (R)-5-hydroxy-5-(5-(3-methyl-5-((4-(trifluoromethyl)pyrimidin-2-yl)amino)phenyl)thiazol-2-yl)-5,6,7,8-tetrahydronaphthalene-2-carboxylic acid], in data set [2], the “dissociation rate of the inhibitor:phosphorylated Syk complex” value was “slow dissociation rate” and the “recovery of Syk enzyme activity following dilution of the inhibitor:Syk complex (relative to the DMSO control)” value is reported as “only a fraction of the activity returned (relative to the DMSO control) after two hours”. Further, the “half-life of the inhibitor:Syk complex” value in data set [2] (after 100-fold dilution into 1 mM ATP, FIG. 2) is over 2 h. In addition, in data set [1], the IC50 was under 0.508 nM.

On to `Cc1cc(Nc2nccc(C(C)C)n2)cc(-c2cnc([C@]3(O)CC[C@@H](C(=O)O)CC3)s2)c1` [Compound A, reference compound], for which the “recovery of Syk enzyme activity following dilution of the inhibitor:Syk complex (relative to the DMSO control)” value in data set [2] is “fully recovered (relative to the DMSO control) within the first five minutes after dilution”. Also, the IC50 in data set [1] was under 0.508 nM.

Take `Oc1cccc(Nc2ncc(F)c(Nc3cccc(O)c3)n2)c1` [Compound R112]: the efficacy versus placebo result in the data set on allergic rhinitis [3] is “lack of efficacy”. For the same compound, in the data set with allergic rhinitis [4], the PGD2 result was “statistically significant decrease” and the clinical safety result was “safe across a range of indicators”.
